Results as given in patent US20110212899A1, “Corneal Neuritogenesis Promoter Containing Pacap and Its Derivative” (priority 2004, published 2011).
Where no end group is shown, it is not given here.

Assays:
Assay type in all cases: cell-based
[1] = system: excised rabbit lacrimal gland; test: Promoting effect on protein secretion from an excised lacrimal gland (1) (Test Example 3)
Method: A lacrimal gland was excised from a rabbit and then treated with PACAP27 or peptide 17. Pharmacological effects of PACAP27 and peptide 17 on an increase in the protein secretion amount were examined.
(a) Purified water was added to sodium chloride (137.92 g), potassium chloride (7.01 g), calcium chloride dihydrate (3.53 g) and magnesium chloride hexahydrate (1.2 g) so that the total volume was 1000 mL (solution 1). Purified water was added to potassium dihydrogen phosphate (8.17 g) so that the total volume was 500 mL (solution 2). The solution 1 (50 mL) and the solution 2 (10 mL) were added to 900 mL of purified water, and in the resulting solution were dissolved glucose (2.07 g) and sodium hydrogen carbonate (2.1 g). The total volume of the resulting solution was adjusted to 1000 mL (pH about 7.4), which was used as a culture solution. A mixed gas of 95% oxygen and 5% carbon dioxide was allowed to pass through the culture solution.
(b) PACAP27 or peptide 17 was dissolved in the culture solution at a concentration of 10^−7 M, which was used as a test substance solution. Carbachol (Nacalai Tesque, Inc.), which has muscarinic agonist activity, was dissolved in the culture solution at a concentration of 10^−4 M, which was used as a control of the drugs (the carbachol-addition group). […]
(a) The section sample in a stationary state was incubated at 37° C. for 20 minutes in 0.5 mL of a fresh culture solution. […] The amount of protein in the culture solution was determined by using a protein staining reagent (DC Protein Assay Reagent, Bio Rad), and was converted into the protein secretion amount per 1 mg of the wet sample. […]
(b) The culture solution of the section sample after incubation obtained in (a) was replaced by 0.5 mL of the test substance solution. […] The protein amount in the collected solution was determined by using the protein staining reagent. In the same way, as a control group, the section sample was incubated in the culture solution which was replaced by a fresh culture solution and the protein amount in the culture solution was determined.

[2] = system: excised rabbit lacrimal gland; test: Promoting effect on protein secretion from an excised lacrimal gland (2) (Test Example 5); conditions: carbachol 10^−4 M, incubated 60 minutes; p<0.05
Method: A lacrimal gland was excised from a rabbit and incubated in a solution containing PACAP27 or peptide 24, and changes in the amount of secreted protein were examined as lacrimal gland stimulating activity.
Japanese white rabbits with a body weight of 1.5 to 2.0 kg purchased from Fukusaki Rabbit warren were used. The animals were each put in separate cages placed in a room wherein a temperature of 23±3° C. and a humidity of 55±10% were kept and a light was on for 12 hours per day (lighting at 8:00 and lights-out at 20:00), and raised after arrival until the final day of the test. The animals were given 100 g of solid feed (Labo R Stock, Nosan Corporation) per day, and could freely have tap water.
PACAP27 and peptide 24 were used as test substances. Test substance solutions were prepared as follows. […]
The section sample in a stationary state was incubated in 0.5 mL of a fresh incubation solution at 37° C. for 20 minutes under a mixed gas atmosphere of 95% oxygen and 5% carbon dioxide. After completion of the incubation, the incubation solution was collected, and the protein amount in the solution was determined by using a protein staining reagent (DC Protein Assay Reagent, Bio Rad). […] The incubation solution was collected, and the protein amount in the incubation solution was determined. […]

[3] = system: cultured rabbit trigeminal nerve cells; test: Promoting effect on neuritogenesis in cultured rabbit trigeminal nerve cells (1) (Test Example 1); conditions: final concentration 1 μM, cultured for 48 hours; control group 24.1%; p<0.001 vs non-addition group
Description: Japanese white rabbits (2 to 3 days old) purchased from Kitayama Labes Co., Ltd. were used.
Rabbit trigeminal nerve cells were isolated according to a method reported by Chan et al. (Kwan Y. Chan and Richard H. Haschke, Exp. Eye Res. 41: 687-699, 1985). The rabbit was subjected to cardiac perfusion with physiological saline under ether anesthesia. A trigeminal ganglion was excised from the rabbit, and then dispersed in a nerve dispersion liquid (Sumitomo Bakelite Co., Ltd.) to prepare trigeminal nerve cells. The trigeminal nerve cells were cultured in Neurobasal medium (Invitrogen Corp) supplemented with B27 Supplement (Invitrogen Corp; final concentration: 2% v/v) and L-glutamine (Invitrogen Corp; final concentration: 1 mM) under 5% CO2 and 95% air at a humidity of 100% and a temperature of 37° C. […]
For evaluating neuritogenesis in the cultured rabbit trigeminal nerve cells, the lengths of the longest neurite and the major axis of the cell body in the stained cell images scanned into the computer were measured using image analysis software (Image-Pro Plus ver. 4.0, Planetron, Inc.) The cells in 3 wells for each group were measured. […] The proportion (%) of the neurite forming cells in the total cell number was calculated (Otori, Y., Wei, J. Y., Barnstable, C. J., Invest. Opthalmol. Vis. Sic., (1998)39, 972-981).

C[N+](C)(C)CCOC(N)=O [carbachol, Carbachol, reference compound]
protein secretion rate of excised lacrimal gland ([1]; carbachol 10^−4 M (control of the drugs)): significant increase
protein secretion rate of excised lacrimal gland compared with control group [2]: significant increase

His-Ser-Asp-Ala-Ile-Phe-Thr-Asp-Ser-Tyr-Ser-Arg-Tyr-Arg-Arg-Gln-Leu-Ala-Val-Arg-Arg-Tyr-Leu-Ala-Ala-Val-Leu-Gly-Arg-Arg-OH (HSDAIFTDSYSRYRRQLAVRRYLAAVLGRR-OH) [Peptide 17]
duration of the action of the drug compared with the carbachol-addition group ([1]; 10^−7 M vs carbachol 10^−4 M): lasted longer
protein secretion rate of excised lacrimal gland ([1]; 10^−7 M, at 20 minutes after initiation of the treatment and thereafter, p<0.05 vs control): significantly increased
proportion (%) of the neurite forming cells in the total cell number [3]: 54.1%
